As a reminder, the Ki is a dissociation constant, usually derived from enzyme kinetics or from competition with a known ligand. One may read the Kd as the constant that tells how readily two partners part at equilibrium.

Consider 2 molecules from patent US20260248923A1, “BI-SPECIFIC ADAPTERS AND THEIR USE WITH UNIVERSAL CAR-T CELLS IN THE TREATMENT OF TUMORS AND THE INHIBITION OF CANCER-ASSOCIATED FIBROBLASTS” (priority 2023, published 2026).

For data set [1], the system named is 22Rv1 cells. The experiment in a line: Retention in 22Rv1 cells in vitro. In kind it is cell-based. As to conditions: 1 μM one hour, washed, 37 C. On the procedure: (§1) Unbound compounds were washed away, and the cells were cultured in RPMI containing 10% FBS at 37° C. with 5% CO2. At indicated time points, the cells were imaged under a confocal microscope to analyze the intensity and location of FITC. […] To analyze the surface-bound FITC, the cells were stained with APC-anti-FITC antibody for 30 minutes on ice at different time points. The fluorescence intensity of APC was analyzed by flow cytometer.

Data set [2] deals with 22Rv1 tumor. The experiment in a line: 22Rv1 tumor in NSG mice with anti-FITC CAR T cells. The data set is classed as in vivo. As to conditions: 10 million anti-FITC CAR T cells.
The test system of data set [3] is MDA-MB-231-PSMA tumor cells. As to the kind of experiment: Total and surface retention of adapters on MDA-PSMA tumor cells in vivo (flow cytometry). (In general: Flow cytometry measures light scatter and fluorescence of single cells or particles in a stream.)
Method: (§2) The mice were euthanized at the indicated time points after injection. Tumors were dissected and dissociated into single cells. Fluorescent intensity of FITC indicating the total retention of the adapters in the tumor cells were analyzed by flow cytometry. To analyze the surface retention of the adapters on the tumor cell surface, the dissociated tumor cells were stained with APC-anti-FITC antibody, and the fluorescent intensity of APC was analyzed by flow cytometry.
Data set [4] relates to TagCAR (universal anti-fluorescein CAR). The experiment in a line: Competition assay against FL-AF647 on TagCAR T cells. The data set is classed as binding. As to conditions: Ki=IC50/(1+[S]/Km), [FL-AF647]=100 nM, triplicates from different donors; read-out: mean calculated inhibitor constant (Ki). On the procedure: PSMAL1-PEG6-FITC strongly binds to TagCAR T cells generated using TagCAR lentiviral particles. […] Due to fluorescein fluorescence being quenched when bound by TagCAR, TagCAR T cells were instead incubated with saturating levels of FL-AF647, which was then competed off by increasing concentrations of PSMAL1-PEG6-FITC. As compared to the antigen-only control sodium fluorescein (NaFL), lower concentrations of PSMAL1-PEG6-FITC were necessary to compete with FL-AF647, as detected by the mean fluorescent intensity (MFI) of FL-AF647.

The test system of data set [5] is MDA-PSMA cells. As to the kind of experiment: Retention in MDA-PSMA cells in vitro (confocal, flow cytometry). The data set is classed as cell-based. To be noted: 1 μM one hour, washed, 37 C. On the procedure: as §1
The target in data set [6] is T1, PSMA (Homo sapiens, UniProt Q04609).
T1 construct: expressed in transfected cells; host or cells: MDA-MB-231 (MDA-PSMA / PSMA+ MDA-MB-231)
T1 sequence (Q04609 whole entry): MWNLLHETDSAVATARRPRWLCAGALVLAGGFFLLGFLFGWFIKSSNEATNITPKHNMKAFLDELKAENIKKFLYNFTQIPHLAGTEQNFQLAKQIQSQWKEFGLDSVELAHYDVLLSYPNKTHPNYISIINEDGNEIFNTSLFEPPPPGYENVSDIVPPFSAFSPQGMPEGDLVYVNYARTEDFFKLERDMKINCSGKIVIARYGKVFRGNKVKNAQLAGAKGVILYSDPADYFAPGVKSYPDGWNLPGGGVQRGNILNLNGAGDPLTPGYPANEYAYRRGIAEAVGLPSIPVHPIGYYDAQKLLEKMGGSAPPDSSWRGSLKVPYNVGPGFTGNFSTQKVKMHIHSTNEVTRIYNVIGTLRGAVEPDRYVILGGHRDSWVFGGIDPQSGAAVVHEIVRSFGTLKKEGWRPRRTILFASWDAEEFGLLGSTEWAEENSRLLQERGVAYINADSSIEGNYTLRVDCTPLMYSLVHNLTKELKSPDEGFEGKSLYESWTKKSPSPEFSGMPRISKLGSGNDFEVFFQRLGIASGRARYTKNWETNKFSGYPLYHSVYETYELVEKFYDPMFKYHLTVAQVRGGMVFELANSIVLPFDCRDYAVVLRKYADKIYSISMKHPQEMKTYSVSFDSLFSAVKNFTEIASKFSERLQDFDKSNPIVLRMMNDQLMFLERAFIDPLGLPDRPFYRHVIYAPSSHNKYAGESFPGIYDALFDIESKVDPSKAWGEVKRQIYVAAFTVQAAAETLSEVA
The experiment in a line: SurfaceTag on-cell binding to PSMA+ MDA-MB-231 tumor cells. How it is done:
PSMAL1-PEG6-FITC strongly localizes on the surface of PSMA-positive tumor cells. To characterize the on-cell binding affinity of PSMAL1-PEG6-FITC to PSMA-expressing tumor cells, different concentrations of PSMAL1-PEG6-FITC were incubated with […] tumor cells that either over-expressed PSMA (PSMA^+) or were wildtype (PSMA−). Levels of surface fluorescein antigen on MDA-MB-321 tumor cells were detected using an anti-fluorescein antibody (FIG. 44A).

In data set [7] the test system is MDA-PSMA tumors (high PSMA level). The experiment in a line: MDA-PSMA tumor in NSG mice with anti-FITC CAR T-cells. To be noted: for eradication of MDA-PSMA tumors: 10 million anti-FITC CAR T-cells. How it is done: MDA-PSMA cells (high PSMA level; 5 million cells) were implanted into each NSG mouse by subcutaneous injection. […] The tumor volume and body weight were monitored regularly. Tumor volume was calculated using the formula: (length*width^2)/2. […] MDA-PSMA cells (5 million) were implanted into each NSG mouse by subcutaneous injection. […] The volumes of the tumors and the body weights of the mice were monitored regularly. Tumor volume was calculated using the formula: (length*width^2)/2.

Data set [8] has as its system MDA-MB-231-PSMA tumors. As to the kind of experiment: Fluorescent imaging of MDA-PSMA tumor bearing mice. The data set is classed as in vivo. As to conditions: 500 nmol/kg intravenously. From the text: MDA-PSMA tumor bearing mice were intravenously injected with the indicated adapters at 500 nmol/kg. Fluorescent images of the mice were taken in the Spectral Ami imaging system at the indicated time points after injection.

Data set [9] has as its system PSMA+ MDA-MB-231 tumor cells. The experiment in a line: TagCAR T cell coculture with PSMA-overexpressing MDA-MB-231 tumor cells. In kind it is cell-based. How it is done:
PSMAL1-PEG6-FITC elicits dose-dependent TagCAR T cell function in vitro. The efficacy of TagCAR T cells generated as described in Example 42 mediated by PSMAL1-PEG6-FITC on PSMA-positive tumor cells was investigated in vitro. The normalized fold tumor cell growth of PSMA-overexpressing (PSMA^+) MDA-MB-231 tumor cells was measured every four hours during an 88-hour coculture of PSMA^+ MD-MB-231 tumor cells and different concentrations of PSMAL1-PEG6-FITC in the presence of TagCAR T cells generated as described in Example 42.
In addition, cytokine levels were measured in culture supernatants 24 hours following the addition of TagCAR T cells generated as described in Example 42 and different concentrations of PSMAL1-PEG6-FITC to PSMA MD-MB-231 tumor cells.
The presence of TagCAR+ cells (FIG. 45C) and presence of CD25+(FIG. 45D) in CD3+ T cells were also measured after 88 hours of coculture with PSMA^+ MDA-MB-231 tumor cells with different concentrations of PSMAL1-PEG6-FITC. CD3+ T cells with TagCAR had higher percentages of CD25+ as compared to CD3+ T cells without TagCAR.

Data set [10] deals with T1, PSMA. As to the kind of experiment: Binding to MDA-PSMA cells by flow cytometry (MFI of FITC). On the procedure:
MDA-PSMA cells (0.2 million) were incubated with 2-fold serial diluted adapters starting from 500 nM in complete RPMI medium (RPMI+10% FBS) for 1 hour at room temperature. Cells were washed twice with 2% FBS in PBS and resuspended in the same buffer. Fluorescent intensity of fluorescein isothiocyanate (FITC) was analyzed by flow cytometer.
MDA-PSMA cells (0.2 million) were incubated with 1 μM of DUPA-FITC conjugates with different PEG linkers in complete RPMI medium (RPMI+10% FBS) for 1 hour at room temperature. Free compounds were washed away, and fluorescent intensity of FITC was analyzed by flow cytometer. To analyze the surface exposure of FITC moiety, the stained cells were incubated with APC-anti-FITC on ice for 30 minutes.
MDA-PSMA cells (0.2 million) were incubated with 2-fold serial diluted adapters starting from 500 nM in complete RPMI medium (RPMI+10% FBS) for 1 hour at room temperature. Cells were washed twice with 2% FBS in PBS and resuspended in the same buffer. Fluorescent intensity of FITC was analyzed by flow cytometer.

Data set [11] relates to 22Rv1 cells. The experiment in a line: 22Rv1 / anti-FITC CAR T co-culture, 48 hours. The data set is classed as cell-based. On the procedure: The number of 22Rv1 cells was counted at the end of the co-culture. The cytotoxicity of anti-FITC CAR T cells was calculated using the formula: (number of untreated 22Rv1 cells−number of treated 22Rv1 cells)/number of untreated 22Rv1 cells*100%. Concentrations of IFNγ in the co-culture medium were analyzed by ELISA using human IFNγ ELISA kit (Biolegend).

In data set [12] the test system is MDA-MB-231-PSMA tumor cells. To be noted: mouse, in vivo.
Method: as §2

Where two headings read alike, the source gives them in different places.

Take `O=C(O)CC[C@H](NC(=O)N[C@@H](CCCCNC(=O)[C@H](Cc1ccc2ccccc2c1)NC(=O)[C@H]1CC[C@H](CNC(=O)CCOCCOCCOCCOCCOCCOCCNC(=S)Nc2ccc(-c3c4ccc(=O)cc-4oc4cc(O)ccc34)c(C(=O)O)c2)CC1)C(=O)O)C(=O)O` [PSMAL1-PEG6-FITC]: the “retention in 22Rv1 cells (flow cytometry)” value in data set [1] is given as “stayed longer in 22Rv1 cells”. For the same molecule, the “growth of 22Rv1 tumor” value in [2] is listed as “inhibited the growth of 22Rv1 tumor significantly”. Also, in data set [3] (48 hours post-injection), the “tumor cells that retained adapter on the surface” value was 65% and the “tumor cells that still had adapter in the cells (total FITC)” value came out at 77%. Also, in [3] (144 hours post-injection), the “tumor cells that retained adapter (total FITC)” value was found to be 45% and the “tumor cells that retained adapter on the surface” value was 34%. Moreover, the Ki in data set [4] is 9.9 nM. Moreover, in data set [5], the “retention in MDA-MB-231-PSMA cells (confocal images)” value is reported as “stayed longer in MDA-MB-231-PSMA cells than DUPA-PEG6-FITC” and the “retention in MDA-PSMA cells expressing different levels of PSMA (flow cytometry)” value is given as “stayed longer in MDA-PSMA cells expressing different levels of PSMA than DUPA-PEG6-FITC”. Besides, the “Bmax (total antigen amount)” value in data set [6] (PSMA+ tumor cells) is listed as 2.6×10^6 MFI. For the same molecule, in data set [6] (PSMA+ tumor cells, anti-fluorescein antibody, read-out: Kd (on-cell binding affinity)), the Kd was 1.29 nM. Besides, the “localization on surface of PSMA-expressing tumor cells” value in [6] (PSMA+ vs PSMA- cells) is “specifically localized on the surface of PSMA-expressing tumors”. Further, the “eradication of MDA-PSMA tumors” value in data set [7] is given as “good efficacy on eliminating MDA-PSMA tumors”. Moreover, in data set [7] (during treatment), the body weight loss entry is listed as “no body weight loss was observed”. Also, the “retention in MDA-MB-231-PSMA tumors (fluorescent images)” value in [8] is “Better Retention in MDA-MB-231-PSM4 Tumors than DUPA-PEG6-FITC and DUPA-FITC”. Further, the “normalized fold tumor cell growth” value in data set [9] (88-hour coculture with TagCAR T cells) is listed as “tumor size decreased”. The “IFNg and IL-2 levels in culture supernatants” value in [9] (24 hours) is on record as “increased with increasing doses”. For the same molecule, the “binding affinity relative to DUPA-PEG6-FITC” value in [10] is given as “five-fold higher”. The “binding affinity and total binding (MFI of FITC)” value in [10] (1 hour room temperature) was “Higher Binding Affinity and Higher Total Binding than DUPA-PEG6-FITC”. The “lysis of 22Rv1 cells by anti-FITC CAR-T cells” value in data set [11] (low concentration) is listed as “much higher than DUPA-PEG6-FITC at low concentration”. For the same molecule, in [11] (low concentrations), the “IFNγ secreted by anti-FITC CAR-T cells” value is listed as “higher than DUPA-PEG6-FITC at low concentrations”.

Take `CC(C)(C)OC(=O)CC[C@H](NC(=O)N[C@@H](CCC(=O)OCc1ccccc1)C(=O)OC(C)(C)C)C(=O)OC(C)(C)C` (stereo in doubt) [DUPA-PEG6-FITC, 2-[3-(3-Benzyloxycarbonyl-1-tert-butoxycarbonyl-propyl)-ureido]pentanedioic Acid Di tert-butyl Ester]: the “growth of 22Rv1 tumor” value in data set [2] was “didn't show much efficacy”. Also, in data set [12], the “tumor cells that retained adapter on the surface” value is 9% and the “tumor cells that still had adapter in the cells (total FITC)” value is 13%. Also, in data set [7], the “eradication of MDA-PSMA tumors” value is given as “good efficacy on eliminating MDA-PSMA tumors”. In addition, in data set [7] (mouse, in vivo), the body weight loss result was “no body weight loss was observed”.
